Test results as given in PubChem BioAssay AID1918991 (Molecular Pharmacology Branch, DTP, NCI, 2023).
pIC50: −log10 of the molar value.

Test system: 186277-243-T-J2-PDC complex spheroid growth
Experiment: Anticancer human tumor 186277-243-T-J2-PDC patient-derived colon adenocarcinoma cell line growth inhibition [AhR]
Conditions: for pIC50: curve of first compound; for viability, T/C: stronger effect = lower value
From the text: Multicellular complex tumor spheroid response to aryl hydrocarbon receptor antagonists in combination with a variety of drugs and investigational agents in selected tumor cell lines
The current study was undertaken to assess response to aryl hydrocarbon receptor antagonists in combination with standard-of-care drugs and investigational agents in solid tumor complex spheroid models. Complex spheroids include a stromal component modeled by human endothelial cells (HUVEC) and fibroblasts modeled by human mesenchymal stem cells (MSCs). The concentration ranges selected for each drug and investigational agent were based upon clinically achievable concentrations if the clinical Cmax of the agent was known.
Compounds. The drugs and investigational agents: BAY 2416964 (NSC825713), GNF351 (NSC835774), CH-223191 (NSC835775), CPI-455 (NSC825282), aza-TdCyd (NSC777586), decitabine (NSC127716), belinostat (NSC758774), entinostat (NSC756642), pevonedistat (NSC761192), tazemetostat (NSC777109), talazoparib (NSC765396), olaparib (NSC753686), selinexor (NSC780203), nedisertib (M3814, NSC802822), bortezomib (NSC756655), venetoclax (NSC766270), doxorubicin (NSC123127), elimusertib (BAY189344, NSC800525), ceralasertib (AZD6738, NSC777638), TAK-243 (NSC785004), alisertib (NSC759677), etoposide (NSC141540), topotecan (NSC609699), eribulin (NSC707389), gemcitabine (NSC613327), carboplatin (NSC241240), cisplatin (NSC119875), and SN-38 (NSC673596) were obtained from the National Cancer Institute (NCI) Developmental Therapeutics Program Chemical Repository (32). The FDA-approved anticancer drug set is available from the Developmental Therapeutics Program at https://dtp.cancer.gov/organization/dscb/obtaining/available plates.htm. […] The stock solutions were prepared in dimethyl sulfoxide (DMSO, Sigma-Aldrich, St. Louis, MO, cat. D2650), except for the platinum compounds which were prepared in saline (Quality Biological, Gaithersburg, MD, cat. 114-055-101), at 800-fold the tested concentration and stored at -70 degrees C prior to their use. All drugs and investigational agents were tested over a range starting from a high concentration at or near the clinical Cmax and decreasing in half-log increments. If the clinical Cmax for an agent had not been determined, the highest concentration tested was 10 microM (Table 1).
Cell Culture. All cells were maintained in an incubator at 37 degrees C and 5% CO2 with 95% humidity. The PDC lines were cultured according to standard operating procedures established by the NCI PDMR (https://pdmr.cancer.gov). Briefly, all PDCs were thawed and cultured in Matrigel-coated flasks prepared with a working solution of 1X Ham's F-12 nutrient mix, without supplementation (Invitrogen, Waltham, MA, cat. 11765054), 100 U/mL penicillin-streptomycin (Invitrogen, cat. 15140122), and 2.5% Matrigel (Corning Inc., Corning, NY, cat. 354248) for the first three passages. All PDCs were cultured in complete DMEM/F-12 media containing advanced DMEM/F-12 (Invitrogen, cat. 12634028), 4.9% defined fetal bovine serum, heat inactivated (HyClone Laboratories Inc., Logan, UT, cat. SH30070.03HI), 389 ng/mL hydrocortisone (Sigma-Aldrich, cat. H4001), 9.7 ng/mL human EGF recombinant protein (Invitrogen, cat. PHG0313), 23.4 microg/mL adenine (Sigma-Aldrich, cat. A2786), 97.3 U/mL penicillin-streptomycin (Invitrogen, cat. 15140122), 1.9 mM L-glutamine (Invitrogen, cat. 25030081), and 9.7 microM Y-27632 dihydrochloride (Tocris Bioscience, Bristol, United Kingdom, cat. 1254). The PDCs were cultured in complete DMEM/F12 media without 10 microM Y-27632 dihydrochloride for at least two passages prior to the screen. The established cell lines NCI-H1341 and […] were cultured in DMEM/F-12, HEPES (Invitrogen, cat. 11330032), 5% defined fetal bovine serum (HyClone Laboratories Inc., cat. SH30070.03), ITS premix universal culture supplement [insulin (5 microg/mL), transferrin (5 microg/mL), and selenious acid (5 ng/mL)] […]

[1] = second compound 0.1 µM, first compound 0.0316 µM
[2] = second compound 0.1 µM, first compound 0.1 µM
[3] = second compound 0.1 µM, first compound 0.316 µM
[4] = second compound 0.1 µM, first compound 1 µM
[5] = second compound 0.316 µM, first compound 0.0316 µM
[6] = second compound 0.316 µM, first compound 0.1 µM
[7] = second compound 0.316 µM, first compound 0.316 µM
[8] = second compound 0.316 µM, first compound 1 µM
[9] = second compound 1 µM, first compound 0.0316 µM
[10] = second compound 1 µM, first compound 0.1 µM
[11] = second compound 1 µM, first compound 0.316 µM
[12] = second compound 1 µM, first compound 1 µM
[13] = second compound 3.16 µM, first compound 0.0316 µM
[14] = second compound 3.16 µM, first compound 0.1 µM
[15] = second compound 3.16 µM, first compound 0.316 µM
[16] = second compound 3.16 µM, first compound 1 µM
[17] = second compound 10 µM, first compound 0.0316 µM
[18] = second compound 10 µM, first compound 0.1 µM
[19] = second compound 10 µM, first compound 0.316 µM
[20] = second compound 10 µM, first compound 1 µM
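Note: spheroids exposed to compounds for seven days before the viability read.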
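Throughout, for viability, T/C: luminescent signal used as a stand-in for viable cell amount; 100% = DMSO vehicle control wells.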

| pIC50 (second compound 0.1 µM) | pIC50 (second compound 0.316 µM) | pIC50 (second compound 1 µM) | pIC50 (second compound 3.16 µM) | pIC50 (second compound 10 µM) | SMILES | viability, T/C [1] [%] | viability, T/C [2] [%] | viability, T/C [3] [%] | viability, T/C [4] [%] | viability, T/C [5] [%] | viability, T/C [6] [%] | viability, T/C [7] [%] | viability, T/C [8] [%] | viability, T/C [9] [%] | viability, T/C [10] [%] | viability, T/C [11] [%] | viability, T/C [12] [%] | viability, T/C [13] [%] | viability, T/C [14] [%] | viability, T/C [15] [%] | further results |
| --- | --- | --- | --- | --- | --- | --- | --- | --- | --- | --- | --- | --- | --- | --- | --- | --- | --- | --- | --- | --- | --- |
| > 7.50 | > 7.50 | > 7.50 | > 7.50 | > 7.50 | COc1cccc2c1C(=O)c1c(O)c3c(c(O)c1C2=O)CC(O)(C(=O)CO)CC3OC1CC(N)C(O)C(C)O1 (stereo not given) + CC(CO)NC(=O)c1cc(-c2ccc(Cl)cc2)nn(-c2cnn(C)c2)c1=O | 39.3 | 28.8 | 7.36 | 0.1 | 38.3 | 27.1 | 7.61 | 0.08 | 37.9 | 29 | 8.06 | 0.09 | 33.9 | 27.5 | 7.26 | viability, T/C (second compound 0.1 µM, first compound 3.16 µM): 0.08%; viability, T/C (second compound 0.1 µM, first compound 10 µM): 0.32%; viability, T/C (second compound 0.316 µM, first compound 3.16 µM): 0.06%; viability, T/C (second compound 0.316 µM, first compound 10 µM): 0.6%; viability, T/C (second compound 1 µM, first compound 3.16 µM): 0.37%; viability, T/C (second compound 1 µM, first compound 10 µM): 0.22%; viability, T/C [16]: 0.08%; viability, T/C (second compound 3.16 µM, first compound 3.16 µM): 0.09%; viability, T/C (second compound 3.16 µM, first compound 10 µM): 0.64%; viability, T/C [17]: 28.2%; viability, T/C [18]: 24.3%; viability, T/C [19]: 4.49%; viability, T/C [20]: 0.2%; viability, T/C (second compound 10 µM, first compound 3.16 µM): 0.17%; viability, T/C (second compound 10 µM, first compound 10 µM): 0.32% |
| < 6.00 | < 6.00 | < 6.00 | < 6.00 | < 6.00 | Nc1ncn(C2CC(O)C(CO)O2)c(=O)n1 (stereo not given) + CC(CO)NC(=O)c1cc(-c2ccc(Cl)cc2)nn(-c2cnn(C)c2)c1=O | 89.3 | 85.1 | 64.5 | 52.1 | 85.8 | 84.9 | 63.6 | 52.8 | 96.1 | 80.9 | 66.2 | 55.2 | 94.3 | 82.5 | 66.8 | viability, T/C (second compound 0.1 µM, first compound 0.00316 µM): 110%; viability, T/C (second compound 0.1 µM, first compound 0.01 µM): 103%; viability, T/C (second compound 0.316 µM, first compound 0.00316 µM): 92%; viability, T/C (second compound 0.316 µM, first compound 0.01 µM): 82.3%; viability, T/C (second compound 1 µM, first compound 0.00316 µM): 84.6%; viability, T/C (second compound 1 µM, first compound 0.01 µM): 97.6%; viability, T/C (second compound 3.16 µM, first compound 0.00316 µM): 91.5%; viability, T/C (second compound 3.16 µM, first compound 0.01 µM): 95.1%; viability, T/C [16]: 59.4%; viability, T/C (second compound 10 µM, first compound 0.00316 µM): 90.3%; viability, T/C (second compound 10 µM, first compound 0.01 µM): 81.2%; viability, T/C [17]: 90.9%; viability, T/C [18]: 79%; viability, T/C [19]: 63.1%; viability, T/C [20]: 51.7% |
